Converted amounts (≈) assume the structure as drawn. “And” between values parts separate entries of the source, which are not always exact repeats. Equal entries are not always repeated.
Key:
Trichophyton rubrum = experiment: agar dilution in vitro activity test; format: cell-based; details: 17 organisms, Kimmig's agar, 25° C.; for MIC: read-out: GMMICS (geometric mean minimum inhibitory concentration)
Method: (§1) Organisms listed in Table 1 were tested according to an agar dilution method: Suspensions of each microorganism were prepared to contain […] colony forming units (cfu)/mL. All drugs were dissolved in a few drops of DMSO then diluted with ethanol—water (1/1, v/v) to make a stock solution of 500 μg/mL. The agar dilution method was performed in a medium of Kimmig's agar (K. A., Merck) −0.5% glycerol [R. A. Fromtling, G. K. Abruzzo and A. Ruiz, Mycopathologia, 106 (1989) 163-166]. Plates of Kimmig's agar containing serial dilutions (25 to 0.01 μg/mL) of the drugs were inoculated with 10 μL of the fungal inocula and incubated at 25° C. […] for yeasts and up to 5 days for filamentous fungi. Following incubation, GMMICs (geometric mean minimum inhibitory concentration μg/mL) were determined. In the table POCZ indicates posaconazole, ITRZ indicates itraconazole, EQUZ indicates Equaconazole, and FLUZ indicates fluconazole [Patterson, T. F., S. G. Revankar, W. R. Kirkpatrick, O. Dib, A. W. Fothergill, S. W. Redding, D. A. Sutton, and M. G. Rinaldi, J. Clin. Microbiol. 34 (1996) 1794-1797].

Microsporum canis = experiment: agar dilution in vitro activity test; format: cell-based; details: 6 organisms, Kimmig's agar, 25° C.; for MIC: read-out: GMMICS (geometric mean minimum inhibitory concentration)
Method: as §1

Candida Krusei = experiment: agar dilution in vitro activity test; format: cell-based; details: 22 organisms, Kimmig's agar, 25° C.; for MIC: Pichia kudriavzevii, read-out: GMMICS (geometric mean minimum inhibitory concentration)
Method: as §1

Aspergillus Flavus = experiment: agar dilution in vitro activity test; format: cell-based; details: 9 organisms, Kimmig's agar, 25° C.; for MIC: read-out: GMMICS (geometric mean minimum inhibitory concentration)
Method: as §1

Cryptococcus neoformans = experiment: agar dilution in vitro activity test; format: cell-based; details: 10 organisms, Kimmig's agar, 25° C.; for MIC: read-out: GMMICS (geometric mean minimum inhibitory concentration)
Method: as §1

[1] = tested on: Ergosterol Biosynthesis, Candida albicans_C286; experiment: inhibition of ergosterol biosynthesis; format: cell-based, Candida albicans; details: Candida albicans_C286, RPMI-1640, 30° C., 48 h
Method: (§2) Compounds of the invention were tested for their ability to inhibit ergosterol biosynthesis. Testing was performed in 96-well round-bottom microtitration plates (Table 2). Cell suspensions were prepared in RPMI-1640 medium and were adjusted to give a final inoculum concentration of 0.5×10^3 to 2.5×10^3 cells/ml. The plates were incubated incubated at 30° C. for 48 h before growth was assessed. The MIC of each compounds was defined as the lowest concentration at which there was 80% inhibition of growth compared with that in a drug-free control [O. N. Breivik and J. L. Owades, Agric. Food Chem., 5 (1957) 360-363; T. F. Patterson, S. G. Revankar, W. R. Kirkpatrick, O. Dib, A. W. Fothergill, S. W. Redding, D. A. Sutton and M. G. Rinaldi, J. Clin. Microbiol., 34 (1996) 1794-1797]. Ergosterol content was calculated as a percentage of the wet weight of the cell [National Committee for Clinical Laboratory Standards. 1997. Reference method for broth dilution antifungal susceptibility testing of yeasts, Approved standard. Document M27-A, National Committee for Clinical Laboratory Standards, Wayne, Pa.].

[2] = tested on: Ergosterol Biosynthesis, Aspergillus fumigatus_ND 158; experiment: inhibition of ergosterol biosynthesis; format: cell-based, Aspergillus fumigatus; details: Aspergillus fumigatus_ND 158, RPMI-1640, 30° C., 48 h
Method: as §2

[3] = PK study of antifungal nasal spray, plasma level after intranasal dosing; format: in vivo, Gottingen mini-pigs
Method: Experiments were performed to determine blood levels of Posaconazole formulation after intranasal dosing in Gottingen mini-pigs. A Group of three male and three female mini-pigs (ages from 6 to 9 months) were used for the studies. The vehicle used in the experiments was 5% of PEG-12 GDM in saline solution. The intranasal administration was performed with 35 mL of Luer slip syringes. HPLC-MS analyses were performed on heparinized mini-pig plasma samples obtained typically at 0 hr, 0.08 hr, 1 hr, 2 hr, 4 hr, 12 hr and 24 hr after dosing. The drug was first isolated from plasma with a sample pre-treatment. Acetonitrile were used to remove proteins in samples. An isocratic HPLC-MS method was then used to separate the drug from any potential interference. Drug levels were measured by MS detection with a multiple reaction monitoring (MRM) mode.

For Equaconazole [EQUZ], the “GMMICS (geometric mean minimum inhibitory concentration)” value (Trichophyton rubrum) was 0.10 µg/mL, the “GMMICS (geometric mean minimum inhibitory concentration)” value (Microsporum canis) was 0.35 µg/mL and the “GMMICS (geometric mean minimum inhibitory concentration)” value (Candida Krusei) was 0.15 µg/mL. For the same molecule, the “GMMICS (geometric mean minimum inhibitory concentration)” value (Aspergillus Flavus) was 0.09 µg/mL, the “GMMICS (geometric mean minimum inhibitory concentration)” value (Cryptococcus neoformans) was 0.25 µg/mL and the IC50 [1] was 31.1 nM. The IC50 [2] was 9.8 nM.
CCC(C)n1ncn(-c2ccc(N3CCN(c4ccc(OCC5COC(Cn6cncn6)(c6ccc(Cl)cc6Cl)O5)cc4)CC3)cc2)c1=O (stereo not drawn) [ITRZ, itraconazole] gave an MIC (Trichophyton rubrum) of 3.1 µg/mL (≈ 4.39 µM), an MIC (Microsporum canis) of 1.2 µg/mL (≈ 1.7 µM) and an MIC (Candida Krusei) of 0.6 µg/mL (≈ 0.85 µM). It also gave an MIC (Aspergillus Flavus) of 0.35 µg/mL (≈ 0.496 µM), an MIC (Cryptococcus neoformans) of 0.49 µg/mL (≈ 0.694 µM) and an IC50 [1] of 39.1 nM.
Molecule CC[C@@H]([C@H](C)O)n1ncn(-c2ccc(N3CCN(c4ccc(OC[C@@H]5CO[C@@](Cn6cncn6)(c6ccc(F)cc6F)C5)cc4)CC3)cc2)c1=O [POCZ, posaconazole] has an MIC (Trichophyton rubrum) of 1.2 µg/mL (≈ 1.71 µM), an MIC (Microsporum canis) of 0.5 µg/mL (≈ 0.713 µM) and an MIC (Candida Krusei) of 0.21 µg/mL (≈ 0.3 µM). For the same molecule, the MIC (Aspergillus Flavus) was 0.12 µg/mL (≈ 0.171 µM), the MIC (Cryptococcus neoformans) was 0.24 µg/mL (≈ 0.342 µM) and the “Posaconazole Level in Mini-pig Plasma” value ([3]; 0.08 hour after intranasal dosing, 5% PEG-12 GDM in saline, individual animals, female mini-pigs) was 1.23 ng/mL and 1.39 ng/mL and 1.21 ng/mL. For the same molecule, the “Posaconazole Level in Mini-pig Plasma” value ([3]; 0.08 hour after intranasal dosing, 5% PEG-12 GDM in saline, individual animals, male mini-pigs) was 1.74 ng/mL and 1.56 ng/mL, the “Posaconazole Level in Mini-pig Plasma” value ([3]; 1 hour after intranasal dosing, 5% PEG-12 GDM in saline, individual animals, female mini-pigs) was 2.06 ng/mL and 1.86 ng/mL and 1.26 ng/mL and the “Posaconazole Level in Mini-pig Plasma” value ([3]; 1 hour after intranasal dosing, 5% PEG-12 GDM in saline, individual animals, male mini-pigs) was 1.24 ng/mL and 1.26 ng/mL. The “Posaconazole Level in Mini-pig Plasma” value ([3]; 4 hour after intranasal dosing, 5% PEG-12 GDM in saline, individual animals, female mini-pigs) was 1.28 ng/mL and 1.17 ng/mL and 1.56 ng/mL, the “Posaconazole Level in Mini-pig Plasma” value ([3]; 4 hour after intranasal dosing, 5% PEG-12 GDM in saline, individual animals, male mini-pigs) was 1.42 ng/mL and 1.46 ng/mL and the “Posaconazole Level in Mini-pig Plasma” value ([3]; 12 hour after intranasal dosing, 5% PEG-12 GDM in saline, individual animals, female mini-pigs) was 2.03 ng/mL and 2.44 ng/mL and 2.35 ng/mL. For the same molecule, the “Posaconazole Level in Mini-pig Plasma” value ([3]; 12 hour after intranasal dosing, 5% PEG-12 GDM in saline, individual animals, male mini-pigs) was 2.41 ng/mL and 1.93 ng/mL, the “Posaconazole Level in Mini-pig Plasma” value ([3]; 24 hour after intranasal dosing, 5% PEG-12 GDM in saline, individual animals, female mini-pigs) was 1.17 ng/mL and 2.04 ng/mL and 1.46 ng/mL and the “Posaconazole Level in Mini-pig Plasma” value ([3]; 24 hour after intranasal dosing, 5% PEG-12 GDM in saline, individual animals, male mini-pigs) was 1.86 ng/mL and 1.66 ng/mL. For the same molecule, the concentration at 0.08 h ([3]; both sexes, Gottingen, minipig, plasma, other: intranasal, 0.08 hour after intranasal dosing, 5% PEG-12 GDM in saline, individual animals, read-out: Posaconazole Level in Mini-pig Plasma) was 1.35 ng/mL, the concentration at 1 h ([3]; both sexes, Gottingen, minipig, plasma, other: intranasal, 1 hour after intranasal dosing, 5% PEG-12 GDM in saline, individual animals, read-out: Posaconazole Level in Mini-pig Plasma) was 1.62 ng/mL and the concentration at 4 h ([3]; both sexes, Gottingen, minipig, plasma, other: intranasal, 4 hour after intranasal dosing, 5% PEG-12 GDM in saline, individual animals, read-out: Posaconazole Level in Mini-pig Plasma) was 1.26 ng/mL. The concentration at 12 h ([3]; both sexes, Gottingen, minipig, plasma, other: intranasal, 12 hour after intranasal dosing, 5% PEG-12 GDM in saline, individual animals, read-out: Posaconazole Level in Mini-pig Plasma) was 1.96 ng/mL, the concentration at 24 h ([3]; both sexes, Gottingen, minipig, plasma, other: intranasal, 24 hour after intranasal dosing, 5% PEG-12 GDM in saline, individual animals, read-out: Posaconazole Level in Mini-pig Plasma) was 1.86 ng/mL and the “amount detected in mini-pig plasma after dosing (in words)” value ([3]; intranasal dosing with formulated Posaconazole) was “Only trace amounts”.
With OC(Cn1cncn1)(Cn1cncn1)c1ccc(F)cc1F [FLUZ, fluconazole] the MIC (Trichophyton rubrum) was 105 µg/mL (≈ 343 µM), the MIC (Microsporum canis) was 151 µg/mL (≈ 493 µM) and the MIC (Candida Krusei) was 65 µg/mL (≈ 212 µM). For the same molecule, the MIC (Aspergillus Flavus) was > 235 µg/mL and the MIC (Cryptococcus neoformans) was 45 µg/mL (≈ 147 µM).

— patent US20130261131A1, “PHARMACEUTICAL COMPOSITIONS AND MENTODS FOR TREATMENT OF FUNGAL INFECTIONS” (priority 2012, published 2013)
